Measured values: patent US10448639B2, “Fungicidal pyrazoles” (FMC CORPORATION, priority 2009, dated 2019)

Legend:
[1] = tested on: Septoria tritici; assay: Test G: wheat leaf blotch, preventive spray on wheat seedlings, visual disease rating; conditions: for pest or weed control at 200 µg/mL: Zymoseptoria tritici, in Triticum aestivum, 504 h, read-out: Test G rating (% disease control)
From the text: (§1) General protocol for preparing test suspensions for Tests A-J: the test compounds were first dissolved in acetone in an amount equal to 3% of the final volume and then suspended at the desired concentration (in ppm) in acetone and purified water (50/50 mix by volume) containing 250 ppm of the surfactant Trem® 014 (polyhydric alcohol esters). The resulting test suspensions were then used in Tests A-J. Spraying a 200 ppm test suspension to the point of run-off on the test plants was the equivalent of a rate of 500 g/ha. Unless otherwise indicated, the rating values indicate a 200 ppm test suspension was used. (An asterisk “*” next to the rating value indicates a 40 ppm test suspension was used.)
The test suspension was sprayed to the point of run-off on wheat seedlings. The following day the seedlings were inoculated with a spore suspension of Septoria tritici (the causal agent of wheat leaf blotch) and incubated in saturated atmosphere at 24° C. for 48 h. and then the seedlings were moved to a growth chamber at 20° C. for 19 additional days, after which time visual disease ratings were made.

[2] = tested on: Puccinia recondita f. sp. tritici; assay: Test I: wheat leaf rust, preventive spray on wheat seedlings, visual disease rating; conditions: for pest or weed control at 200 µg/mL: 192 h, read-out: Test I rating (% disease control)
[3] = tested on: Alternaria solani; assay: Test C: tomato early blight, preventive spray on tomato seedlings, visual disease rating; conditions: for pest or weed control at 200 µg/mL: Alternaria solani, in Solanum lycopersicum, 168 h, read-out: Test C rating (% disease control)
[4] = tested on: Botrytis cinerea; assay: Test B: tomato Botrytis, preventive spray on tomato seedlings, visual disease rating; conditions: for pest or weed control at 200 µg/mL: Botrytis cinerea, in Solanum lycopersicum, 120 h, read-out: Test B rating (% disease control)
[5] = tested on: Puccinia recondita f. sp. tritici; assay: Test H: wheat leaf rust, curative spray on inoculated wheat seedlings, visual disease rating; conditions: for pest or weed control at 200 µg/mL: 144 h, read-out: Test H rating (% disease control)
From the text: as §1
Wheat seedlings were inoculated with a spore suspension of Puccinia recondita f. sp. tritici (the causal agent of wheat leaf rust) and incubated in a saturated atmosphere at 20° C. for 24 h, and then moved to a growth chamber at 20° C. for 2 days. At the end of this time the test suspension was sprayed to the point of run-off, and then the seedlings were moved to a growth chamber at 20° C. for 6 days after which time visual disease ratings were made.

[6] = tested on: Septoria nodorum; assay: Test F: Septoria glume blotch, preventive spray on wheat seedlings, visual disease rating; conditions: for pest or weed control at 200 µg/mL: Parastagonospora nodorum, in Triticum aestivum, 192 h, read-out: Test F rating (% disease control)
[7] = tested on: Erysiphe graminis f sp. tritici; assay: Test J: wheat powdery mildew, preventive spray on wheat seedlings, visual disease rating; conditions: Blumeria graminis, in Triticum aestivum, 192 h, read-out: Test J rating (% disease control)

| SMILES | pest or weed control at 200 µg/mL [1] [%] | pest or weed control at 200 µg/mL [2] [%] | pest or weed control at 200 µg/mL [3] [%] | pest or weed control at 200 µg/mL [4] [%] | pest or weed control at 200 µg/mL [5] [%] | pest or weed control at 200 µg/mL [6] [%] | pest or weed control at 200 µg/mL [7] [%] | Test G rating (% disease control) ([1]; wheat leaf blotch, 100 = 100% disease control, 0 = no control relative to controls) [%] | Test I rating (% disease control) ([2]; wheat leaf rust, preventive, 100 = 100% disease control, 0 = no control relative to controls) [%] | Test C rating (% disease control) ([3]; tomato early blight, 100 = 100% disease control, 0 = no control relative to controls) [%] | Test B rating (% disease control) ([4]; tomato Botrytis, 100 = 100% disease control, 0 = no control relative to controls) [%] | Test H rating (% disease control) ([5]; wheat leaf rust, curative, 100 = 100% disease control, 0 = no control relative to controls) [%] | Test F rating (% disease control) ([6]; Septoria glume blotch, 100 = 100% disease control, 0 = no control relative to controls) [%] | Test G disease control rating ([1]; wheat leaf blotch, sprayed the day before inoculation, 100 = 100% disease control, 0 = no disease control relative to controls) [%] | Test I disease control rating ([2]; wheat leaf rust, sprayed the day before inoculation, 100 = 100% disease control, 0 = no disease control relative to controls) [%] | Test C disease control rating ([3]; tomato early blight, 100 = 100% disease control, 0 = no disease control relative to controls) [%] | Test B disease control rating ([4]; tomato Botrytis, 100 = 100% disease control, 0 = no disease control relative to controls) [%] | Test H disease control rating ([5]; wheat leaf rust, sprayed after inoculation, 100 = 100% disease control, 0 = no disease control relative to controls) [%] | Test F disease control rating ([6]; Septoria glume blotch on wheat, 100 = 100% disease control, 0 = no disease control relative to controls) [%] |
| --- | --- | --- | --- | --- | --- | --- | --- | --- | --- | --- | --- | --- | --- | --- | --- | --- | --- | --- | --- |
| COc1cc(F)c(Nc2c(-c3ccc(F)cc3Cl)c(C)nn2C)c(F)c1 [Compound 17, 4-(2-Chloro-4-fluorophenyl)-N-(2,6-difluoro-4-methoxyphenyl)-1,3-dimethyl-1H-pyrazol-5-amine] | 97 | 100 | 100 | 100 | 96 | 93 | 100 | – | – | – | – | – | – | – | – | – | – | – | – |
| Cc1nn(C)c(Nc2c(F)cc(F)cc2F)c1-c1ccc(F)cc1Cl [Compound 18, 4-(2-chloro-4-fluorophenyl)-1,3-dimethyl-N-(2,4,6-trifluorophenyl)-1H-pyrazol-5-amine] | 95 | 100 | 100 | 99 | 99 | 99 | 100 | – | – | – | – | – | – | – | – | – | – | – | – |
| COc1cc(F)c(-c2c(C)nn(C)c2Nc2ccc(Cl)cc2)c(F)c1 [Compound 22, N-(4-chlorophenyl)-4-(2,6-difluoro-4-methoxyphenyl)-1,3-dimethyl-1H-pyrazol-5-amine] | 94 | 94 | 85 | 90 | 9 | 90 | 100 | – | – | – | – | – | – | – | – | – | – | – | – |
| COc1cc(F)c(-c2c(C)nn(C)c2Nc2ccc(F)cc2F)c(F)c1 [Compound 23, 4-(2,6-difluoro-4-methoxyphenyl)-N-(2,4-difluorophenyl)-1,3-dimethyl-1H-pyrazol-5-amine] | 93 | 100 | 100 | 98 | 92 | 99 | 100 | – | – | – | – | – | – | – | – | – | – | – | – |
| COc1cc(F)c(-c2c(C)nn(C)c2Nc2c(F)cc(F)cc2F)c(F)c1 [Compound 24, 4-(2,6-difluoro-4-methoxyphenyl)-1,3-dimethyl-N-(2,4,6-trifluorophenyl)-1H-pyrazol-5-amine] | 94 | 97 | 100 | 98 | 9 | 0 | 100 | – | – | – | – | – | – | – | – | – | – | – | – |
| COc1cc(F)c(Nc2c(-c3ccc(F)c(F)c3)c(C)nn2C)c(F)c1 [Compound 36, N-(2,6-difluoro-4-methoxyphenyl)-4-(3,4-difluorophenyl)-1,3-dimethyl-1H-pyrazol-5-amine] | 96 | 96 | 0 | 100 | 0 | 0 | 98 | – | – | – | – | – | – | – | – | – | – | – | – |
| Cc1nn(C)c(Nc2c(F)cc(F)cc2F)c1-c1ccc(F)cc1F [Compound 41, 4-(2,4-difluorophenyl)-1,3-dimethyl-N-(2,4,6-trifluorophenyl)-1H-pyrazol-5-amine] | 94 | 100 | 99 | 100 | 0 | 90 | 99 | – | – | – | – | – | – | – | – | – | – | – | – |
| Cc1nn(C)c(Oc2c(F)cc(C#N)cc2F)c1-c1ccc(F)cc1Cl [Compound 45, 4-[[4-(2-chloro-4-fluorophenyl)-1,3-dimethyl-1H-pyrazol-5-yl]oxy]-3,5-difluorobenzonitrile] | 100 | 100 | 100 | 100 | 7 | 100 | 100 | – | – | – | – | – | – | – | – | – | – | – | – |
| Cc1nn(C)c(Oc2c(F)cc([N+](=O)[O-])cc2F)c1-c1c(F)cc(F)cc1F [Compound 54, 5-(2,6-Difluoro-4-nitrophenoxy)-1,3-dimethyl-4-(2,4,6-trifluorophenyl)-1H-pyrazole] | 41 | 95 | 0 | 96 | 0 | 0 | 95 | – | – | – | – | – | – | – | – | – | – | – | – |
| COc1cc(F)c(-c2c(C)nn(C)c2Oc2c(F)cc(Cl)cc2F)c(F)c1 [Compound 58, 5-(4-Chloro-2,6-difluorophenoxy)-4-(2,6-difluoro-4-methoxyphenyl)-1,3-dimethyl-1H-pyrazole] | 98 | 100 | 100 | 98 | 82 | 89 | 100 | – | – | – | – | – | – | – | – | – | – | – | – |
| Cc1nn(C)c(Nc2ccc(F)cc2F)c1-c1ccc(Cl)cc1Cl [Compound 69, 4-(2,4-Dichlorophenyl)-N-(2,4-difluorophenyl)-1,3-dimethyl-1H-pyrazol-5-amine] | 99 | 99 | 73 | 100 | 91 | 60 | 100 | – | – | – | – | – | – | – | – | – | – | – | – |
| COc1cc(F)c(-c2c(C)nn(C)c2Nc2ccc(F)cc2Cl)c(F)c1 [Compound 87, N-(2-chloro-4-fluorophenyl)-4-(2,6-difluoro-4-methoxyphenyl)-1,3-dimethyl-1H-pyrazol-5-amine] | 98 | 99 | 100 | 100 | 85 | 95 | 100 | – | – | – | – | – | – | – | – | – | – | – | – |
| Cc1nn(C)c(Nc2c(F)cc(C#N)cc2F)c1-c1ccc(F)cc1Cl [Compound 91, 4-[[4-(2-chloro-4-fluorophenyl)-1,3-dimethyl-1H-pyrazol-5-yl]amino]-3,5-difluorobenzonitrile] | 99 | 100 | 99 | 100 | 0 | 95 | 100 | – | – | – | – | – | – | – | – | – | – | – | – |
| Cc1nn(C)c(Oc2ccc(C#N)cc2F)c1-c1ccc(F)cc1Cl [Compound 118, 4-[[4-(2-chloro-4-fluorophenyl)-1,3-dimethyl-1H-pyrazol-5-yl]oxy]-3-fluorobenzonitrile] | 100 | 100 | 100 | 100 | 99 | 98 | 99 | – | – | – | – | – | – | – | – | – | – | – | – |
| Cc1nn(C)c(Oc2ccc(C#N)cc2Cl)c1-c1ccc(F)cc1Cl [Compound 139, 3-chloro-4-[[4-(2-chloro-4-fluorophenyl)-1,3-dimethyl-1H-pyrazol-5-yl]oxy]benzonitrile] | 100 | 99 | 86 | 100 | 69 | 100 | 100 | – | – | – | – | – | – | – | – | – | – | – | – |
| Cc1nn(C)c(Oc2cc(F)c(C#N)cc2F)c1-c1ccc(F)cc1Cl [Compound 148, 4-[[4-(2-chloro-4-fluorophenyl)-1,3-dimethyl-1H-pyrazol-5-yl]oxy]-2,5-difluorobenzonitrile] | 100 | 100 | 99 | 99 | 61 | 100 | 99 | – | – | – | – | – | – | – | – | – | – | – | – |
| COc1cc(Cl)c(Nc2c(-c3ccc(F)cc3Cl)c(C)nn2C)c(Cl)c1 [compound 296] | – | – | – | – | – | – | – | 100 | 99 | 0 | 99 | 0 | 0 | – | – | – | – | – | – |
| COc1cc(Cl)c(Nc2c(-c3ccc(F)cc3Br)c(C)nn2C)c(Cl)c1 [compound 323] | – | – | – | – | – | – | – | – | – | – | – | – | – | 98 | 94 | 0 | 98 | 0 | 0 |
